# Where “and” joins values, the source holds several entries; their conditions need not be identical. Equal values may be shown once.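 All cell lines were grown in 96-well plates and treated with compound for 48 hours. GI50 = concentration required for 50% inhibition of growth. TGI denotes the concentration required for complete inhibition of growth.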
# Assays:
# Test in all cases: inhibition of tumour cell growth, NCI panel, 48 h
# CCRF-CEM leukemia = tested on: CCRF-CEM leukemia
# COLO 205 colon = tested on: COLO 205 colon
# HCC-2998 colon = tested on: HCC-2998 colon
# HOP-62 NSCLC = tested on: HOP-62 NSCLC
# KM12 colon = tested on: KM12 colon
# OVCAR-8 ovarian = tested on: OVCAR-8 ovarian
# RPMI-8226 leukemia = tested on: RPMI-8226 leukemia
# SF-268 CNS = tested on: SF-268 CNS
# SK-MEL-28 melanoma = tested on: SK-MEL-28 melanoma
# SK-MEL-5 melanoma = tested on: SK-MEL-5 melanoma
Compound,TGI (CCRF-CEM leukemia),TGI (COLO 205 colon),TGI (HCC-2998 colon),TGI (HOP-62 NSCLC),TGI (KM12 colon),TGI (OVCAR-8 ovarian),TGI (RPMI-8226 leukemia),TGI (SF-268 CNS),TGI (SK-MEL-28 melanoma),TGI (SK-MEL-5 melanoma),GI50 (CCRF-CEM leukemia),GI50 (COLO 205 colon),GI50 (HCC-2998 colon),GI50 (HOP-62 NSCLC),GI50 (KM12 colon),GI50 (RPMI-8226 leukemia),GI50 (SF-268 CNS),GI50 (SK-MEL-28 melanoma),GI50 (OVCAR-8 ovarian),GI50 (SK-MEL-5 melanoma)
CCCNCCCC(NC(C)=O)C(=O)NCc1ccccc1 (configuration not stated),> 100 µM,> 100 µM,> 100 µM,> 100 µM,> 100 µM,> 100 µM,> 100 µM,> 100 µM,> 100 µM,> 100 µM,,,,,,,,,,
CCCC(=O)Nc1cc(C(=O)N2C[C@@H]3C[C@]34C2=CC(=O)c2[nH]cc(C)c24)n(COC)c1,,12.9 µM and 4.26 µM,9.71 µM and 10.2 µM,50 µM and 8.13 µM,20.4 µM and 21.5 µM,9.06 µM and 5.87 µM,37.3 µM and 8.36 µM,10.6 µM and 33.3 µM,34.2 µM and 10.7 µM,5.38 µM and 3.24 µM,0.495 µM,1.83 µM,2.88 µM,2.5 µM,4.58 µM,2.57 µM,3.46 µM,3.08 µM,,
COc1ccccc1/C=C/[N+](=O)[O-],6.47 µM,4.52 µM,3.24 µM,7.12 µM,8.59 µM,10.4 µM,3.78 µM,5.12 µM,3.66 µM,4.03 µM,2.16 µM,2.12 µM,1.76 µM,2.57 µM,3.02 µM,1.05 µM,2.39 µM,1.62 µM,3.1 µM,2 µM
COc1ccccc1N=C(N)N/N=C/c1c[nH]c2ccccc12,31.2 µM,3.32 µM,6.27 µM,30.2 µM,29.6 µM,28.2 µM,32.1 µM,29.1 µM,16.3 µM,8.91 µM,,,,,,,,,,
Cc1c(S(C)(=O)=O)c(-c2cc(F)cc(N3CCN(c4ccc(NS(=O)(=O)c5ccc(N[C@H](CCN6CCC(C(=O)OCCCP(=O)(O)O)CC6)CSc6ccccc6)c(S(=O)(=O)C(F)(F)F)c5)cc4)CC3)c2)c(-c2ccc(Cl)cc2)n1C(C)C,> 100 µM,> 100 µM,> 100 µM,> 100 µM,> 100 µM,> 100 µM,> 100 µM,> 100 µM,> 100 µM,> 100 µM,0.456 µM,> 100 µM,2.13 µM,> 100 µM,> 100 µM,1.29 µM,> 100 µM,> 100 µM,> 100 µM,> 100 µM
O=C1C=C(NCCNC(=S)Nc2ccccc2)c2nccc3c2c1nc1ccccc13,> 100 µM,> 100 µM,> 100 µM,> 100 µM,> 100 µM,> 100 µM,> 100 µM,> 100 µM,> 100 µM,> 100 µM,> 100 µM,9.18 µM,17.6 µM,81.7 µM,41.2 µM,74.6 µM,53.7 µM,> 100 µM,> 100 µM,27.5 µM
CCc1n(Cc2ccc3ccccc3n2)cc[n+]1Cc1ccc2ccccc2n1,15.4 µM,0.705 µM,14.4 µM,31.5 µM,11.3 µM,17.6 µM,10.1 µM,14.2 µM,14.7 µM,1.02 µM,0.388 µM,0.0596 µM,0.227 µM,4.66 µM,0.185 µM,0.0172 µM,0.453 µM,0.196 µM,1.63 µM,0.0653 µM
